In patent US20060069132A1, “Azolecarboxamide herbicides” (priority 2004, published 2006):

Experiments:
[1] = system: barnyardgrass; assay: Test A pre-/postemergence herbicide test; assay type: in vivo, Echinochloa crus-galli
In short: (§1)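 Visual injury scores on a 0–100 scale (100 = complete control) taken about ten days post-treatment in greenhouse against untreated controls; dash means no result. Treatments: preemergence soil spray and postemergence spray to runoff on one- to two-leaf plants 2 to 10 cm tall, surfactant-containing formulation.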

[2] = system: large crabgrass; assay: Test A pre-/postemergence herbicide test; assay type: in vivo, Digitaria sanguinalis
In short: as §1

[3] = system: giant foxtail; assay: Test A pre-/postemergence herbicide test; assay type: in vivo, Setaria faberi
In short: as §1

[4] = system: morningglory; assay: Test A pre-/postemergence herbicide test; assay type: in vivo, Ipomoea spp.
In short: as §1

[5] = system: redroot pigweed; assay: Test A pre-/postemergence herbicide test; assay type: in vivo, Amaranthus retroflexus
In short: as §1

[6] = system: velvetleaf; assay: Test A pre-/postemergence herbicide test; assay type: in vivo, Abutilon theophrasti
In short: as §1

[7] = system: barnyardgrass; assay: Test B pre-/postemergence herbicide test; assay type: in vivo, Echinochloa crus-galli; conditions: for Barnyardgrass plant response rating: postemergence
In short: (§2)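 Flooded paddy rice and barnyardgrass were treated at the 2-leaf stage; upland plantings received compound either on sown seed or on 1- to 4-leaf seedlings. All were kept 13–15 days in a greenhouse and scored visually, 0–100, relative to untreated plants.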

[8] = system: Surinam grass; assay: Test B pre-/postemergence herbicide test; assay type: in vivo, Urochloa decumbens; conditions: for Surinam Grass plant response rating: postemergence
In short: (§3)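 Greenhouse pot assay with simultaneous preemergence (treated seed) and postemergence (2–18 cm seedlings) applications of surfactant-containing, non-phytotoxic solvent formulations. Response scored visually 13–15 days later on a 0–100 scale, 100 meaning complete control.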

[9] = system: cocklebur; assay: Test B pre-/postemergence herbicide test; assay type: in vivo, Xanthium strumarium; conditions: for Cocklebur plant response rating: postemergence
In short: as §2

[10] = system: corn; assay: Test B pre-/postemergence herbicide test; assay type: in vivo, Zea mays; conditions: for Corn plant response rating: postemergence
In short: as §3

[11] = system: large crabgrass; assay: Test B pre-/postemergence herbicide test; assay type: in vivo, Digitaria sanguinalis; conditions: for Crabgrass, Large plant response rating: postemergence
In short: as §3

[12] = system: giant foxtail; assay: Test B pre-/postemergence herbicide test; assay type: in vivo, Setaria faberi; conditions: for Foxtail, Giant plant response rating: postemergence
In short: as §3

[13] = system: lambsquarters; assay: Test B pre-/postemergence herbicide test; assay type: in vivo, Chenopodium album; conditions: for Lambsquarters plant response rating: postemergence
In short: as §3

[14] = system: morningglory; assay: Test B pre-/postemergence herbicide test; assay type: in vivo, Ipomoea coccinea; conditions: for Morningglory plant response rating: postemergence
In short: as §2

[15] = system: pigweed; assay: Test B pre-/postemergence herbicide test; assay type: in vivo, Amaranthus retroflexus; conditions: for Pigweed plant response rating: postemergence
In short: as §3

[16] = system: rice; assay: Test B pre-/postemergence herbicide test; assay type: in vivo, Oryza sativa; conditions: 0 = no effect, 100 = complete control, preemergence
In short: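 Species tested were Echinochloa crus-galli, Ipomoea coccinea, Xanthium strumarium and Oryza sativa, treated both before emergence and at the 1- to 4-leaf stage; rice and barnyardgrass were also tested under flooding at 2 leaves. Greenhouse incubation lasted 13–15 days before visual 0–100 scoring.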

[17] = system: velvetleaf; assay: Test B pre-/postemergence herbicide test; assay type: in vivo, Abutilon theophrasti; conditions: for Velvetleaf plant response rating: postemergence
In short: as §3

[18] = system: blackgrass; assay: Test B postemergence herbicide test; assay type: in vivo, Alopecurus myosuroides; conditions: postemergence
In short: (§4)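 After treating 2-leaf paddy plants or 2–18 cm postemergence plants (1 to 4 leaves) with formulated chemical, researchers kept them in a greenhouse for 13–15 days. Effects were judged visually versus controls: 0 indicates none, 100 total control.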

[19] = system: wheat; assay: Test B postemergence herbicide test; assay type: in vivo, Triticum aestivum; set-up: key to Wheat plant response rating: 0 = no effect, 100 = complete control; conditions: postemergence
In short: (§5)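 Treated at 2-leaf (paddy) or 1–4-leaf, 2–18 cm (postemergence); greenhouse 13–15 d; visual score vs control, 0 none to 100 complete control; dash = not tested.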

[20] = system: wild oat; assay: Test B postemergence herbicide test; assay type: in vivo, Avena fatua; conditions: postemergence
In short: as §5

[21] = system: rice; assay: Test B flooded paddy test; assay type: in vivo, Oryza sativa; conditions: 1000 g ai/ha, scale 0 to 100 (0 no effect, 100 complete control)
In short: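 Greenhouse test; postemergence application to plants at 1–4 leaves (2–18 cm); paddy species at 2 leaves; evaluated visually vs controls at 13–15 days; scale 0–100 (100 = complete control).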

[22] = system: small flower umbrella sedge; assay: Test B flooded paddy test; assay type: in vivo, Cyperus difformis; conditions: 1000 g ai/ha, scale 0 to 100 (0 no effect, 100 complete control)
In short: as §4

[23] = system: ducksalad; assay: Test B flooded paddy test; assay type: in vivo, Heteranthera limosa; conditions: 1000 g ai/ha, scale 0 to 100 (0 no effect, 100 complete control)
In short: as §4

[24] = system: barnyardgrass; assay: Test B flooded paddy test; assay type: in vivo, Echinochloa crus-galli; conditions: 1000 g ai/ha, scale 0 to 100 (0 no effect, 100 complete control)
In short: as §4

[25] = Postemergence, 500 g ai/ha, 0 to 100 scale, 0 no effect, 100 complete control
[26] = Postemergence, 2000 g ai/ha, 0 to 100 scale, 0 no effect, 100 complete control
[27] = Preemergence, 2000 g ai/ha, visual rating, 0 to 100 scale (0 no effect, 100 complete control)
[28] = preemergence, 500 g ai/ha, visual injury, 0 to 100 scale (0 no effect, 100 complete control)
[29] = 125 g ai/ha, 0 = no effect, 100 = complete control, preemergence
[30] = 500 g ai/ha, visual rating, 0 = no effect, 100 = complete control, preemergence
[31] = 125 g ai/ha, visual rating, scale 0 (no effect) to 100 (complete control)
[32] = 500 g ai/ha, scale 0 to 100, 0 is no effect, 100 is complete control

## CCn1nc(C(C)(C)C)cc1C(=O)Nc1ccnc(C(=O)NCCF)c1 [Compound 284]
[1]; [25]
  Barnyardgrass plant response rating: 30
[1]; [26]
  Plant response rating, Barnyardgrass: 60
[1]; [27]
  Barnyardgrass plant response rating: 85
[1]; [28]
  Barnyardgrass plant response rating: 10
[2]; [25]
  Crabgrass, Large plant response rating: 20
[2]; [26]
  Plant response rating, Crabgrass, Large: 20
[2]; [27]
  Crabgrass, Large plant response rating: 80
[2]; [28]
  Crabgrass, Large plant response rating: 15
[3]; [25]
  Foxtail, Giant plant response rating: 20
[3]; [26]
  Plant response rating, Foxtail, Giant: 35
[3]; [27]
  Foxtail, Giant plant response rating: 55
[3]; [28]
  Foxtail, Giant plant response rating: 20
[4]; [25]
  Morningglory plant response rating: 10
[4]; [26]
  Plant response rating, Morningglory: 15
[4]; [27]
  Morningglory plant response rating: 5
[4]; [28]
  Morningglory plant response rating: 0
[5]; [25]
  Pigweed plant response rating: 95
[5]; [26]
  Plant response rating, Pigweed: 100
[5]; [27]
  Pigweed plant response rating: 100
[5]; [28]
  Pigweed plant response rating: 85
[6]; [25]
  Velvetleaf plant response rating: 30
[6]; [26]
  Plant response rating, Velvetleaf: 35
[6]; [27]
  Velvetleaf plant response rating: 40
[6]; [28]
  Velvetleaf plant response rating: 10
[7]; [29]
  Barnyardgrass plant response rating (0 to 100 scale): 0
[7]; [30]
  Plant response rating, Barnyardgrass: 80
[7]; [31]
  Barnyardgrass plant response rating: 0
[7]; [32]
  Barnyardgrass plant response rating: 0
[8]; [29]
  Surinam Grass plant response rating (0 to 100 scale): 0
[8]; [30]
  Plant response rating, Surinam Grass: 10
[8]; [31]
  Surinam Grass plant response rating: 0
[8]; [32]
  Surinam Grass plant response rating: 20
[9]; [29]
  Cocklebur plant response rating (0 to 100 scale): 0
[9]; [30]
  Plant response rating, Cocklebur: 0
[9]; [31]
  Cocklebur plant response rating: 0
[9]; [32]
  Cocklebur plant response rating: 0
[10]; [29]
  Corn plant response rating (0 to 100 scale): 0
[10]; [30]
  Plant response rating, Corn: 0
[10]; [31]
  Corn plant response rating: 0
[10]; [32]
  Corn plant response rating: 10
[11]; [29]
  Crabgrass, Large plant response rating (0 to 100 scale): 0
[11]; [30]
  Plant response rating, Crabgrass, Large: 90
[11]; [31]
  Crabgrass, Large plant response rating: 0
[11]; [32]
  Crabgrass, Large plant response rating: 10
[12]; [29]
  Foxtail, Giant plant response rating (0 to 100 scale): 0
[12]; [30]
  Plant response rating, Foxtail, Giant: 10
[12]; [31]
  Foxtail, Giant plant response rating: 0
[12]; [32]
  Foxtail, Giant plant response rating: 0
[13]; [29]
  Lambsquarters plant response rating (0 to 100 scale): 90
[13]; [30]
  Plant response rating, Lambsquarters: 100
[13]; [31]
  Lambsquarters plant response rating: 50
[13]; [32]
  Lambsquarters plant response rating: 50
[14]; [29]
  Morningglory plant response rating (0 to 100 scale): 0
[14]; [30]
  Plant response rating, Morningglory: 0
[14]; [31]
  Morningglory plant response rating: 0
[14]; [32]
  Morningglory plant response rating: 0
[15]; [29]
  Pigweed plant response rating (0 to 100 scale): 90
[15]; [30]
  Plant response rating, Pigweed: 100
[15]; [31]
  Pigweed plant response rating: 60
[15]; [32]
  Pigweed plant response rating: 70
[16]; 125 g ai/ha
  Rice plant response rating (0 to 100 scale): 0
[16]; 500 g ai/ha, visual rating
  Plant response rating, Rice: 20
[17]; [29]
  Velvetleaf plant response rating (0 to 100 scale): 0
[17]; [30]
  Plant response rating, Velvetleaf: 60
[17]; [31]
  Velvetleaf plant response rating: 0
[17]; [32]
  Velvetleaf plant response rating: 0
[18]; [31]
  Blackgrass plant response rating: 20
[18]; [32]
  Blackgrass plant response rating: 40
[19]; [31]
  Wheat plant response rating: 20
[19]; [32]
  Wheat plant response rating: 30
[20]; [31]
  Oat, Wild plant response rating: 10
[20]; [32]
  Oat, Wild plant response rating: 30
[21]
  Rice plant response rating: 10
[22]
  Sedge, Umbrella plant response rating: 0
[23]
  Ducksalad plant response rating: 70
[24]
  Barnyardgrass plant response rating: 30
